Results from patent publication US11352350B2, “IRAK degraders and uses thereof” (Kymera Therapeutics, Inc., priority 2018, dated 2022).
Where two headings read alike, the source gives them in different places.

Tests used:
IRAK4 = IRAK4 (Homo sapiens (Human), UniProt Q9NWZ3); experiment: IRAK4 MSD degradation in OCI-LY10; assay type: cell-based
Procedure, shortened: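 OCI-LY10 cells treated with 8-point 1:3 dilutions (top 1 to 10 μM final) for 4 to 24 h at 37° C. Lysate IRAK4 measured by MSD sandwich immunoassay (2H9 capture, Y279 detection, SULFO-TAG anti-rabbit). DC50 from three-parameter logistic fit.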

OCI-LY10 = experiment: CTG Cell Viability Assay - OCI-LY10; assay type: cell-based, human; settings: OCI-LY10, 4 days, read-out: CTG Cell Viability Assay - OCI-LY10: Average external-IC50
Procedure, shortened: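 OCI-LY10 cells exposed to 9-dose, 1:3 dilutions from 10 μM top (0.2% DMSO) for 4 days at 37° C, 5% CO2. Viability by CellTiter-Glo luminescence; IC50 from three-parameter logistic fit.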

[1] = OCI-LY10, 4 hrs, MSD, read-out: IRAK4 MSD degradation in OCI-LY10 at 4 hrs: Average external-Abs DC50
[2] = OCI-LY10, 24 hrs, MSD, read-out: IRAK4 MSD degradation in OCI-LY10 at 24 hrs: Average external-Abs DC50
[3] = OCI-LY10, 4 hrs, read-out: IRAK4 MSD degradation in OCI-LY10 at 4 hrs: DC50
[4] = OCI-LY10, 24 hrs, read-out: IRAK4 MSD degradation in OCI-LY10 at 24 hrs: DC50

Chain of IRAK4 (Q9NWZ3 whole entry): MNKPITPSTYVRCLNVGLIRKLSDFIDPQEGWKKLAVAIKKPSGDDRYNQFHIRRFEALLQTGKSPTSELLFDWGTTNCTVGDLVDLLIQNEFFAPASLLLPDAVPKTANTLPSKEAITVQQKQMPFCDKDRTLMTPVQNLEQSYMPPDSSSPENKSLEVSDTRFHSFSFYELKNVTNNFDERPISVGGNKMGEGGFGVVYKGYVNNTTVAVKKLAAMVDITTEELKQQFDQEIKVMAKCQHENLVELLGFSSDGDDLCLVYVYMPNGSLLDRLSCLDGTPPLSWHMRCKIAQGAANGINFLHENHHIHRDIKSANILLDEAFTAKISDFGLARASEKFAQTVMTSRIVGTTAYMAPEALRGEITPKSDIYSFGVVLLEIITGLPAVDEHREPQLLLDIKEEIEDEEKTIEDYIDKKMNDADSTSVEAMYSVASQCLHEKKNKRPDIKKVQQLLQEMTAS

SMILES	DC50 (IRAK4; [1]) [µM]	DC50 (IRAK4; [2]) [µM]	IC50 (OCI-LY10; Homo sapiens, OCI-Ly10, 96 h) [µM]	IC50 (OCI-LY10) [µM]	DC50 (IRAK4; [3]) [µM]	DC50 (IRAK4; [4]) [µM]
CN(CCC#CCN)C[C@H]1CC[C@H](n2cc(NC(=O)c3cnn4ccc(N5CCOCC5)nc34)c(C(F)F)n2)CC1 [I-412, N-[1-[4-[[5-aminopent-3-ynyl(methyl)amino]methyl]cyclohexyl]-3-(difluoromethyl)pyrazol-4-yl]-5-morpholino-pyrazolo [1,5-a]pyrimidine-3-carboxamide]	> 1	> 1	> 1	–	–	–
CN(CCN1CCO[C@@H](CCNc2cccc3c2C(=O)N(C2CCC(=O)NC2=O)C3=O)C1)C[C@H]1CC[C@H](n2cc(NC(=O)c3cnn4ccc(N5C[C@H]6C[C@@H]5CO6)nc34)c(C(F)F)n2)CC1 (stereo partly shown) [I-337]	0.1 to 1	0.01 to 0.1	0.05 to 0.1	–	–	–
CN1C(=O)C(C2CCC(=O)NC2=O)c2cccc(CCCOC3CCN(C[C@H]4CC[C@H](n5cc(NC(=O)c6cnn7ccc(N8CC(O)C8)nc67)c(C(F)F)n5)CC4)CC3)c21 (stereo partly shown) [I-284]	< 0.01	–	> 1	–	–	–
Cn1c(=O)n(C2CCC(=O)NC2=O)c2cccc(CCCOC3CCN(C[C@H]4CC[C@H](n5cc(NC(=O)c6cnn7ccc(N8CCC(O)CC8)nc67)c(C(F)F)n5)CC4)CC3)c21 (stereo partly shown) [I-157]	< 0.01	–	> 1	–	–	–
Cn1c(=O)n(C2CCC(=O)NC2=O)c2cccc(CCCOC3CCN(C[C@H]4CC[C@H](n5cc(NC(=O)c6cnn7ccc(NCC8CC8)nc67)c(C(C)(C)O)n5)CC4)CC3)c21 (stereo partly shown) [I-267]	0.1 to 1	–	–	> 1	–	–
Cn1c(=O)n(C2CCC(=O)NC2=O)c2ccc(CCCOCCOCCOCCOCC(=O)N3CCN([C@H]4CC[C@H](Nc5ncnn6ccc(C7CCOCC7)c56)CC4)CC3)cc21 (stereo partly shown) [I-20]	> 1	> 1	> 1	–	–	–
O=C1CCC(N2C[C@@H](c3ccc(C#CCCOC4CCN(C[C@H]5CC[C@H](n6cc(NC(=O)C7CNN8C=CC(N9CCOCC9)=NC78)c(C(F)F)n6)CC5)CC4)cc3)OC2=O)C(=O)N1 (stereo partly shown) [I-197]	0.01 to 0.1	–	> 1	–	–	–
CC[C@@H]1[C@H](F)C(=O)N[C@@H]1COc1ncc(C#C[C@H]2CC[C@H](CN3CCC(OCCC#Cc4ccc([C@H]5CN(C6CCC(=O)NC6=O)C(=O)O5)cc4)CC3)CC2)c2cc(C(N)=O)c(OC)cc12 (stereo partly shown) [I-206]	0.01 to 0.1	0.01 to 0.1	> 1	–	–	–
Cn1c(=O)n(C2CCC(=O)NC2=O)c2cccc(CN3CCC(CN4CCC(n5cc(NC(=O)c6coc(-c7ccnc(NCC8CC8)c7)n6)c(C(F)F)n5)CC4)CC3)c21 (stereo not shown) [I-265]	0.01 to 0.1	–	< 0.05	–	–	–
O=C1CCC(N2C(=O)c3cccc(OCCCOC4CCN(C[C@H]5CC[C@H](n6cc(NC(=O)c7cnn8ccc(N[C@@H]9CCCC[C@@H]9O)nc78)c(C(F)F)n6)CC5)CC4)c3C2=O)C(=O)N1 (stereo partly shown) [I-296]	0.01 to 0.1	–	> 1	–	–	–
CN(CCCCCCCNC(=O)c1ccc(CNCc2ccc(-c3ccc4c(cnn4CC4CC4)c3)cc2)cc1)C[C@H]1CC[C@H](n2cc(NC(=O)c3coc(-c4ccnc(NCC5CC5)c4)n3)c(C(F)F)n2)CC1 [I-135]	0.1 to 1	> 1	> 1	–	–	–
CN(C[C@H]1CC[C@H](n2cc(NC(=O)c3cnn4ccc(NCC5CC5)nc34)c(C(F)F)n2)CC1)[C@H]1CC[C@H](Nc2cccc3c2C(=O)N(C2CCC(=O)NC2=O)C3=O)CC1 (stereo partly shown) [I-453]	–	–	0.05 to 0.1	–	0.01 to 0.1	< 0.01
CN1C(=O)CCC(n2c(=O)n(C)c3c(CCCOC4CCN(C[C@H]5CC[C@H](n6cc(NC(=O)c7cnn8ccc(N9CCOCC9)nc78)c(C(F)F)n6)CC5)CC4)cccc32)C1=O (stereo partly shown) [I-195]	0.1 to 1	–	> 1	–	–	–
CN1C(=O)C(C2CCC(=O)NC2=O)c2cccc(CCCOC3CCN(C[C@H]4CC[C@H](n5cc(NC(=O)c6cnn7ccc(N8CCC(C)(O)CC8)nc67)c(C(F)F)n5)CC4)CC3)c21 (stereo partly shown) [I-286]	0.01 to 0.1	–	> 1	–	–	–
CC[C@@H]1[C@H](F)C(=O)N[C@@H]1COc1ncc(C#CC2CCN(CC3CCN(Cc4cccc5c4n(C)c(=O)n5C4CCC(=O)NC4=O)CC3)CC2)c2cc(C(N)=O)c(OC)cc12 (stereo partly shown) [I-194]	0.01 to 0.1	–	> 1	–	–	–
CN(C[C@H]1CC[C@H](n2cc(NC(=O)c3cnn4ccc(N5C[C@H]6CC5CO6)nc34)c(C(F)F)n2)CC1)C1CCC2(CC1)CC(Nc1cccc3c1C(=O)N(C1CCC(=O)NC1=O)C3=O)C2 (stereo partly shown) [I-454]	–	–	0.05 to 0.1	–	0.1 to 1	0.01 to 0.1
CC[C@@H]1[C@H](F)C(=O)N[C@@H]1COc1ncc(C#CC2CCN(CCCC3CCN(Cc4ccc5c(c4)n(C)c(=O)n5C4CCC(=O)NC4=O)CC3)CC2)c2cc(C(N)=O)c(OC)cc12 (stereo partly shown) [I-193]	0.1 to 1	0.01 to 0.1	> 1	–	–	–
O=C1CCC(N2C(=O)c3cccc(N[C@H]4C[C@H](OC5CCN(C[C@H]6CC[C@H](n7cc(NC(=O)c8cnn9ccc(N%10C[C@H]%11C[C@@H]%10CO%11)nc89)c(C(F)F)n7)CC6)CC5)C4)c3C2=O)C(=O)N1 (stereo partly shown) [I-505]	–	–	> 1	–	0.01 to 0.1	< 0.01
CC[C@@H]1[C@H](F)C(=O)N[C@@H]1COc1ncc(C#C[C@H]2CC[C@H](CN(C)CCCOCCNc3cccc4c3C(=O)N(C3CCC(=O)NC3=O)C4=O)CC2)c2cc(C(N)=O)c(OC)cc12 (stereo partly shown) [I-387]	0.1 to 1	–	< 0.05	–	–	–
O=C1CCC(N2C(=O)c3cccc(NCCCOCCCS(=O)(=O)NC(=O)[C@H]4CC[C@H](n5cc(NC(=O)c6cnn7ccc(N8C[C@H]9CC8CO9)nc67)c(C(F)F)n5)CC4)c3C2=O)C(=O)N1 (stereo partly shown) [I-440]	0.1 to 1	> 1	> 1	–	–	–
O=C1CCC(N2C(=O)c3cccc(NCCCOC4CCN(C[C@H]5CC[C@H](n6cc(NC(=O)c7cnn8ccc(N9CC%10CC(C9)O%10)nc78)c(C(F)F)n6)CC5)CC4)c3C2=O)C(=O)N1 (stereo partly shown) [I-344]	0.1 to 1	–	< 0.05	–	–	–
O=C1CCC(N2C(=O)c3cccc(NCC4CCC5(CC4)CN(C[C@H]4CC[C@H](n6cc(NC(=O)c7cnn8ccc(N9C[C@H]%10C[C@@H]9CO%10)nc78)c(C(F)F)n6)CC4)C5)c3C2=O)C(=O)N1 (stereo partly shown) [I-552]	–	–	< 0.05	–	0.1 to 1	–
CN(Cc1ccc(CCNc2cccc3c2C(=O)N(C2CCC(=O)NC2=O)C3=O)cc1)C[C@H]1CC[C@H](n2cc(NC(=O)c3cnn4ccc(N5C[C@H]6C[C@@H]5CO6)nc34)c(C(F)F)n2)CC1 (stereo partly drawn) [I-341, N-[3-(difluoromethyl)-1-[4-[[[4-[2-[[2-(2,6-dioxo-3-piperidyl)-1,3-dioxo-isoindolin-4-yl]amino]ethyl]phenyl]methyl-methyl-amino]methyl]cyclohexyl]pyrazol-4-yl]-5-[(1R,4R)-2-oxa-5-azabicyclo [2.2.1]heptan-5-yl] pyrazolo [1,5-a] pyrimidine-3-carboxamide]	0.1 to 1	0.01 to 0.1	> 1	–	–	–
CN(CCC(C)(C)O)c1ccn2ncc(C(=O)Nc3cn([C@H]4CC[C@H](CN(C)[C@H]5CC[C@H](Nc6cccc7c6C(=O)N(C6CCC(=O)NC6=O)C7=O)CC5)CC4)nc3C(F)F)c2n1 (stereo partly shown) [I-504]	–	–	0.1 to 0.5	–	> 1	0.01 to 0.1
O=C1CCC(N2C(=O)c3cccc(NCC4CC5(CCN(C(=O)[C@H]6CC[C@H](n7cc(NC(=O)c8cnn9ccc(N%10CCNCC%10)nc89)c(C(F)F)n7)CC6)CC5)C4)c3C2=O)C(=O)N1 (stereo partly shown) [I-370]	0.01 to 0.1	–	0.1 to 0.5	–	–	–
O=C1CCC(N2C(=O)c3cccc(NCCCCOC4CCN(C[C@H]5CC[C@H](n6cc(NC(=O)c7coc(-c8ccnc(NCC9CC9)c8)n7)c(C(F)F)n6)CC5)CC4)c3C2=O)C(=O)N1 (stereo partly shown) [I-170]	0.01 to 0.1	–	< 0.05	–	–	–
